{
  "source": "patent US20080228408A1",
  "about": "“Method for Determining the State of an Ensemble of Cells and System for the Implementation of the Method” (priority 2005, published 2008)",
  "tested_on": "neuronal cells",
  "assay": "Toxicogenomic DNA chip test: gene expression level (RES) in cells exposed to the compound compared to unexposed cells",
  "type": "cell-based",
  "from_the_text": "One wishes to carry out the evaluation of the toxicity of a collection of (15) pesticides using a toxicogenomic analysis of the impact of these pesticides on neuronal cells, according to 4 modes of exposure of the cells to the compounds:\nDNA chips built specifically to test the expression level of the 51 genes in cells under study, each chip being configured only for one gene in our case, each chip allowing to carry out for each gene a redundant number of measurements (16) in order to stabilize the levels of expression by analysing the results on average. The spots on the chips are numbered sp1 to sp16.\nAn automated device D5 allowing, on signal of execution of the C2 test, to take a E1 sample of the cell culture C (non exposed) and a E2 sample of the cell culture C exposed to the compound by the device described previously under the conditions specified with the configuration, then to use the D1 device to select a DNA chip corresponding to the gene specified at the time of the configuration, and to put the samples E1 and E2 thus obtained in the presence of the aforementioned DNA chip according to the methods described in the D1 device,\nThe result of a test, RES, transmitted by the Resource Unit to the PC, is a raw numerical value which indicates the expression level of the gene indicated in the configuration, for the cell exposed to the compound under the conditions of concentration and exposure duration specified in the configuration, compared to the expression level of the same gene in an unexposed cell of identical nature.\nThe following results are based on 3 evaluations, each using a different strategy, the target cells being neuronal cells, the mode of exposure being Expo11.\nThe results presented in table 2 show the values obtained in (052) for the evaluation of Paraquat according to the 4 modes Expo11, Expo12, Expo21, Expo22 carried out. The missing data are not relevant (ranging between 0.5 and 2 strictly).",
  "key": {"[1]": {"details": "Neuron, C2 (IC50/10), 24 h (Expo21)"}, "[2]": {"details": "Neuron, C2 (IC50/10), 48 h (Expo22)"}, "[3]": {"details": "neuronal cells, Expo11 (IC50, 24 h), strategy of selection by class"}},
  "data": [
    {"smiles": "C[n+]1ccc(-c2cc[n+](C)cc2)cc1", "note": "[Paraquat]", "values": [
      {"measurement": "ALB gene expression level RES (exposed/unexposed cells)", "setting": "[1]", "value": 0.34},
      {"measurement": "APAF1 gene expression level RES (exposed/unexposed cells)", "setting": "[1]", "value": 0.20},
      {"measurement": "AR gene expression level RES (exposed/unexposed cells)", "setting": "[1]", "value": 0.08},
      {"measurement": "ATF6 gene expression level RES (exposed/unexposed cells)", "setting": "[1]", "value": 0.17},
      {"measurement": "ATM gene expression level RES (exposed/unexposed cells)", "setting": "[1]", "value": 0.11},
      {"measurement": "BAX gene expression level RES (exposed/unexposed cells)", "setting": "[1]", "value": 0.09},
      {"measurement": "BCL2 gene expression level RES (exposed/unexposed cells)", "setting": "[1]", "value": 0.14},
      {"measurement": "BZRP gene expression level RES (exposed/unexposed cells)", "setting": "[1]", "value": 0.14},
      {"measurement": "C12ORF8 gene expression level RES (exposed/unexposed cells)", "setting": "[1]", "value": 0.22},
      {"measurement": "CALR gene expression level RES (exposed/unexposed cells)", "setting": "[1]", "value": 0.38},
      {"measurement": "CDC25C gene expression level RES (exposed/unexposed cells)", "setting": "[1]", "value": 0.37},
      {"measurement": "CDK4 gene expression level RES (exposed/unexposed cells)", "setting": "[1]", "value": 0.29},
      {"measurement": "CDKN1A gene expression level RES (exposed/unexposed cells)", "setting": "[1]", "value": 0.13},
      {"measurement": "CREB1 gene expression level RES (exposed/unexposed cells)", "setting": "[1]", "value": 0.29},
      {"measurement": "CTSB gene expression level RES (exposed/unexposed cells)", "setting": "[1]", "value": 0.20},
      {"measurement": "CTSD gene expression level RES (exposed/unexposed cells)", "setting": "[1]", "value": 0.05},
      {"measurement": "EGF gene expression level RES (exposed/unexposed cells)", "setting": "[1]", "value": 0.21},
      {"measurement": "EPHX1 gene expression level RES (exposed/unexposed cells)", "setting": "[1]", "value": 0.19},
      {"measurement": "FOS gene expression level RES (exposed/unexposed cells)", "setting": "[1]", "value": 0.12},
      {"measurement": "GADD45A gene expression level RES (exposed/unexposed cells)", "setting": "[1]", "value": 0.20},
      {"measurement": "GPX1 gene expression level RES (exposed/unexposed cells)", "setting": "[1]", "value": 0.09},
      {"measurement": "GSS gene expression level RES (exposed/unexposed cells)", "setting": "[1]", "value": 0.28},
      {"measurement": "GSTM3 gene expression level RES (exposed/unexposed cells)", "setting": "[1]", "value": 0.36},
      {"measurement": "HOXD1 gene expression level RES (exposed/unexposed cells)", "setting": "[1]", "value": 0.11},
      {"measurement": "HSPA5 gene expression level RES (exposed/unexposed cells)", "setting": "[1]", "value": 0.33},
      {"measurement": "HSPA9B gene expression level RES (exposed/unexposed cells)", "setting": "[1]", "value": 0.16},
      {"measurement": "JUN gene expression level RES (exposed/unexposed cells)", "setting": "[1]", "value": 0.33},
      {"measurement": "MDM2 gene expression level RES (exposed/unexposed cells)", "setting": "[1]", "value": 0.05},
      {"measurement": "NFKB1 gene expression level RES (exposed/unexposed cells)", "setting": "[1]", "value": 0.26},
      {"measurement": "NOS2A gene expression level RES (exposed/unexposed cells)", "setting": "[1]", "value": 0.30},
      {"measurement": "PARA gene expression level RES (exposed/unexposed cells)", "setting": "[1]", "value": 0.04},
      {"measurement": "PGR gene expression level RES (exposed/unexposed cells)", "setting": "[1]", "value": 0.12},
      {"measurement": "RAD50 gene expression level RES (exposed/unexposed cells)", "setting": "[1]", "value": 0.35},
      {"measurement": "RAD51 gene expression level RES (exposed/unexposed cells)", "setting": "[1]", "value": 0.22},
      {"measurement": "SOD1 gene expression level RES (exposed/unexposed cells)", "setting": "[1]", "value": 0.24},
      {"measurement": "TF1 gene expression level RES (exposed/unexposed cells)", "setting": "[1]", "value": 0.53},
      {"measurement": "THBS1 gene expression level RES (exposed/unexposed cells)", "setting": "[1]", "value": 0.08},
      {"measurement": "TP53 gene expression level RES (exposed/unexposed cells)", "setting": "[1]", "value": 0.31},
      {"measurement": "TUBA1 gene expression level RES (exposed/unexposed cells)", "setting": "[1]", "value": 0.03},
      {"measurement": "XBP1 gene expression level RES (exposed/unexposed cells)", "setting": "[1]", "value": 0.24},
      {"measurement": "A2M gene expression level RES (exposed/unexposed cells)", "setting": "[2]", "value": 0.04},
      {"measurement": "AITCH gene expression level RES (exposed/unexposed cells)", "setting": "[2]", "value": 0.03},
      {"measurement": "ALB gene expression level RES (exposed/unexposed cells)", "setting": "[2]", "value": 0.02},
      {"measurement": "APAF1 gene expression level RES (exposed/unexposed cells)", "setting": "[2]", "value": 0.05},
      {"measurement": "AR gene expression level RES (exposed/unexposed cells)", "setting": "[2]", "value": 0.05},
      {"measurement": "ATF6 gene expression level RES (exposed/unexposed cells)", "setting": "[2]", "value": 0.06},
      {"measurement": "ATM gene expression level RES (exposed/unexposed cells)", "setting": "[2]", "value": 0.04},
      {"measurement": "BAX gene expression level RES (exposed/unexposed cells)", "setting": "[2]", "value": 0.05},
      {"measurement": "BCL2 gene expression level RES (exposed/unexposed cells)", "setting": "[2]", "value": 0.03},
      {"measurement": "BZRP gene expression level RES (exposed/unexposed cells)", "setting": "[2]", "value": 0.04},
      {"measurement": "C12ORF8 gene expression level RES (exposed/unexposed cells)", "setting": "[2]", "value": 0.04},
      {"measurement": "CALR gene expression level RES (exposed/unexposed cells)", "setting": "[2]", "value": 0.11},
      {"measurement": "CDC25C gene expression level RES (exposed/unexposed cells)", "setting": "[2]", "value": 0.05},
      {"measurement": "CDK4 gene expression level RES (exposed/unexposed cells)", "setting": "[2]", "value": 0.06},
      {"measurement": "CDKN1A gene expression level RES (exposed/unexposed cells)", "setting": "[2]", "value": 0.02},
      {"measurement": "CREB1 gene expression level RES (exposed/unexposed cells)", "setting": "[2]", "value": 0.05},
      {"measurement": "CTSB gene expression level RES (exposed/unexposed cells)", "setting": "[2]", "value": 0.06},
      {"measurement": "CTSD gene expression level RES (exposed/unexposed cells)", "setting": "[2]", "value": 0.03},
      {"measurement": "EGF gene expression level RES (exposed/unexposed cells)", "setting": "[2]", "value": 0.05},
      {"measurement": "EPHX1 gene expression level RES (exposed/unexposed cells)", "setting": "[2]", "value": 0.08},
      {"measurement": "FOS gene expression level RES (exposed/unexposed cells)", "setting": "[2]", "value": 0.05},
      {"measurement": "GADD45A gene expression level RES (exposed/unexposed cells)", "setting": "[2]", "value": 0.04},
      {"measurement": "GPX1 gene expression level RES (exposed/unexposed cells)", "setting": "[2]", "value": 0.02},
      {"measurement": "GSS gene expression level RES (exposed/unexposed cells)", "setting": "[2]", "value": 0.03},
      {"measurement": "GSTM3 gene expression level RES (exposed/unexposed cells)", "setting": "[2]", "value": 0.06},
      {"measurement": "HOXD1 gene expression level RES (exposed/unexposed cells)", "setting": "[2]", "value": 0.05},
      {"measurement": "HSPA5 gene expression level RES (exposed/unexposed cells)", "setting": "[2]", "value": 0.07},
      {"measurement": "HSPA9B gene expression level RES (exposed/unexposed cells)", "setting": "[2]", "value": 0.06},
      {"measurement": "JUN gene expression level RES (exposed/unexposed cells)", "setting": "[2]", "value": 0.05},
      {"measurement": "MDM2 gene expression level RES (exposed/unexposed cells)", "setting": "[2]", "value": 0.06},
      {"measurement": "NFKB1 gene expression level RES (exposed/unexposed cells)", "setting": "[2]", "value": 0.05},
      {"measurement": "NOS2A gene expression level RES (exposed/unexposed cells)", "setting": "[2]", "value": 0.06},
      {"measurement": "PARA gene expression level RES (exposed/unexposed cells)", "setting": "[2]", "value": 0.05},
      {"measurement": "PGR gene expression level RES (exposed/unexposed cells)", "setting": "[2]", "value": 0.04},
      {"measurement": "RAD50 gene expression level RES (exposed/unexposed cells)", "setting": "[2]", "value": 0.06},
      {"measurement": "RAD51 gene expression level RES (exposed/unexposed cells)", "setting": "[2]", "value": 0.06},
      {"measurement": "SOD1 gene expression level RES (exposed/unexposed cells)", "setting": "[2]", "value": 0.04},
      {"measurement": "TF1 gene expression level RES (exposed/unexposed cells)", "setting": "[2]", "value": 0.05},
      {"measurement": "THBS1 gene expression level RES (exposed/unexposed cells)", "setting": "[2]", "value": 0.06},
      {"measurement": "TP53 gene expression level RES (exposed/unexposed cells)", "setting": "[2]", "value": 0.05},
      {"measurement": "TUBA1 gene expression level RES (exposed/unexposed cells)", "setting": "[2]", "value": 0.04},
      {"measurement": "XBP1 gene expression level RES (exposed/unexposed cells)", "setting": "[2]", "value": 0.06},
      {"measurement": "A2M marker test: relevant level of expression (RES <=0.5 or >=2)", "setting": "[3]", "value": "relevant result"},
      {"measurement": "CDKN1A marker test: relevant level of expression (RES <=0.5 or >=2)", "setting": "[3]", "value": "relevant result was found"},
      {"measurement": "CYP19A1 marker test: relevant level of expression (RES <=0.5 or >=2)", "setting": "[3]", "value": "did not provide any relevant result"},
      {"measurement": "SOD1 marker test: relevant level of expression (RES <=0.5 or >=2)", "setting": "[3]", "value": "without success"}
    ]}
  ]
}
